Source: US12398101B2, “Herbicidal 2-azaspiro[3-5]nonane compounds” (SYNGENTA CROP PROTECTION AG, priority 2018, dated 2025)

What was measured:
Type in all cases: in vivo
Conditions in all cases: 250 g/h, evaluated after 13 days
Lolium perenne (LOLPE) [1] = experiment: Glasshouse herbicide test, pre-emergence application
Protocol: (§1) Seeds of a variety of test species are sown in standard soil in pots (Lolium perenne (LOLPE), Setaria faberi (SETFA), Echinochloa crus-galli (ECHCG), Avena fatua (AVEFA)). After cultivation for one day (pre-emergence) or after 8 days cultivation (post-emergence) under controlled conditions in a glasshouse (at 24/16° C., day/night; 14 hours light; 65% humidity), the plants are sprayed with an aqueous spray solution derived from the formulation of the technical active ingredient in acetone/water (50:50) solution containing 0.5% Tween 20 (polyoxyethelyene sorbitan monolaurate, CAS RN 9005-64-5). Compounds are applied at 250 g/h. The test plants are then grown in a glasshouse under controlled conditions in a glasshouse (at 24/16° C., day/night; 14 hours light; 65% humidity) and watered twice daily. After 13 days for pre and post-emergence, the test is evaluated for the percentage damage caused to the plant. The biological activities are shown in the following table on a five point scale (5=80-100%; 4=60-79%; 3=40-59%; 2=20-39%; 1=0-19%).

[2] = tested on: Echinochloa crus-galli (ECHCG); experiment: as above
Protocol: as §1

Setaria faberi (SETFA) [3] = experiment: as above
Protocol: as §1

Avena fatua (AVEFA) [4] = experiment: as above
Protocol: as §1

Lolium perenne (LOLPE) [5] = experiment: Glasshouse herbicide test, post-emergence application
Protocol: as §1

[6] = tested on: Echinochloa crus-galli (ECHCG); experiment: as above
Protocol: as §1

Setaria faberi (SETFA) [7] = experiment: as above
Protocol: as §1

Avena fatua (AVEFA) [8] = experiment: as above
Protocol: as §1

| Compound | percentage damage caused to the plant, five point scale, LOLPE (Lolium perenne (LOLPE) [1]) | percentage damage caused to the plant, five point scale, ECHCG [2] | percentage damage caused to the plant, five point scale, SETFA (Setaria faberi (SETFA) [3]) | percentage damage caused to the plant, five point scale, AVEFA (Avena fatua (AVEFA) [4]) | percentage damage caused to the plant, five point scale, LOLPE (Lolium perenne (LOLPE) [5]) | percentage damage caused to the plant, five point scale, ECHCG [6] | percentage damage caused to the plant, five point scale, SETFA (Setaria faberi (SETFA) [7]) | percentage damage caused to the plant, five point scale, AVEFA (Avena fatua (AVEFA) [8]) |
| --- | --- | --- | --- | --- | --- | --- | --- | --- |
| CC#Cc1cc(C)c(C2C(=O)CC3(CC2=O)CN(S(=O)(=O)CC)C3)c(C)c1 [Compound 1.002] | 5 (5=80-100%) | 5 (5=80-100%) | 5 (5=80-100%) | 5 (5=80-100%) | 5 (5=80-100%) | 5 (5=80-100%) | 5 (5=80-100%) | 5 (5=80-100%) |
| CC#Cc1cc(C)c(C2C(=O)CC3(CC2=O)CN(C(=O)COC)C3)c(C)c1 [Compound 1.005] | 5 (5=80-100%) | 5 (5=80-100%) | 5 (5=80-100%) | 5 (5=80-100%) | 5 (5=80-100%) | 5 (5=80-100%) | 5 (5=80-100%) | 5 (5=80-100%) |
| CC#Cc1cc(C)c(C2C(=O)CC3(CC2=O)CN(C(=O)NC(=O)c2ccccn2)C3)c(C)c1 [Compound 1.011] | 2 (2=20-39%) | 2 (2=20-39%) | 3 (3=40-59%) | 1 (1=0-19%) | 3 (3=40-59%) | 3 (3=40-59%) | 5 (5=80-100%) | 3 (3=40-59%) |
| CC#Cc1cc(C)c(C2C(=O)CC3(CC2=O)CN(C(=O)c2ccccc2)C3)c(C)c1 [Compound 1.003, 2-benzoyl-7-(2,6-dimethyl-4-prop-1-ynyl-phenyl)-2-azaspiro[3.5]nonane-6,8-dione] | 5 (5=80-100%) | 5 (5=80-100%) | 5 (5=80-100%) | 5 (5=80-100%) | 5 (5=80-100%) | 5 (5=80-100%) | 5 (5=80-100%) | 5 (5=80-100%) |
| CC#Cc1cc(Cl)c(C2C(=O)CC3(CC2=O)CN(C(=O)C(F)F)C3)c(OC)c1 [Compound 1.193] | 5 (5=80-100%) | 5 (5=80-100%) | 5 (5=80-100%) | 5 (5=80-100%) | 5 (5=80-100%) | 5 (5=80-100%) | 5 (5=80-100%) | 5 (5=80-100%) |
| CC#Cc1cc(C)c(C2C(=O)CC3(CC2=O)CN(C(=O)NC(=O)C(C)(C)C)C3)c(C)c1 [Compound 1.007] | 5 (5=80-100%) | 5 (5=80-100%) | 5 (5=80-100%) | 3 (3=40-59%) | 5 (5=80-100%) | 5 (5=80-100%) | 4 (4=60-79%) | 4 (4=60-79%) |
| CC#Cc1cc(C)c(C2C(=O)CC3(CC2=O)CN(C(=O)C(C)(C)C)C3)c(OC)c1 [Compound 1.021] | 5 (5=80-100%) | 5 (5=80-100%) | 5 (5=80-100%) | 5 (5=80-100%) | 5 (5=80-100%) | 5 (5=80-100%) | 5 (5=80-100%) | 5 (5=80-100%) |
| CC#Cc1cc(C)c(C2C(=O)CC3(CC2=O)CN(C(=O)NC(C)(C)C)C3)c(OC)c1 [Compound 1.018] | 5 (5=80-100%) | 5 (5=80-100%) | 5 (5=80-100%) | 5 (5=80-100%) | 5 (5=80-100%) | 5 (5=80-100%) | 5 (5=80-100%) | 5 (5=80-100%) |
| CC#Cc1cc(C)c(C2C(=O)CC3(CC2=O)CN(C(=O)c2ccccc2)C3)c(OC)c1 [Compound 1.015] | 5 (5=80-100%) | 5 (5=80-100%) | 5 (5=80-100%) | 5 (5=80-100%) | 5 (5=80-100%) | 5 (5=80-100%) | 5 (5=80-100%) | 5 (5=80-100%) |
| CC#Cc1cc(C)c(C2C(=O)CC3(CC2=O)CN(C(=O)c2ccccn2)C3)c(OC)c1 [Compound 1.016] | 5 (5=80-100%) | 5 (5=80-100%) | 5 (5=80-100%) | 5 (5=80-100%) | 5 (5=80-100%) | 5 (5=80-100%) | 5 (5=80-100%) | 5 (5=80-100%) |
| CC#Cc1cc(C)c(C2C(=O)CC3(CC2=O)CN(C(=O)CC#N)C3)c(C)c1 [Compound 1.012] | 5 (5=80-100%) | 5 (5=80-100%) | 5 (5=80-100%) | 5 (5=80-100%) | 5 (5=80-100%) | 5 (5=80-100%) | 5 (5=80-100%) | 4 (4=60-79%) |
| CC#Cc1cc(C)c(C2C(=O)CC3(CC2=O)CN(C(=O)c2ccccn2)C3)c(C)c1 [Compound 1.004] | 5 (5=80-100%) | 5 (5=80-100%) | 5 (5=80-100%) | 5 (5=80-100%) | 5 (5=80-100%) | 5 (5=80-100%) | 5 (5=80-100%) | 5 (5=80-100%) |
